Results reported in PMC4025172 (Breast Cancer Research and Treatment, 2014).
Read-outs that look alike come from different tables or passages of the source. Marks after values point to notes of the source that are not given here.

How the values were obtained:
[1] = cited from earlier work
[2] = format: in vivo, human; conditions: for AUC(0–24),C2: parameter not reliable; for AUC(0-t) / Cmax / concentration at -0.5 h / Tmax: serum, other: vaginal, 0.03 mg
[3] = system: E3 receptor complex / E2 receptor complex; conditions: cited from earlier work
[4] = system: breast cancer; conditions: retrospective cohort study in Finland, postmenopausal patients; cited from earlier work
[5] = cited from earlier work; remark: listed apart in the source
[6] = system: nuclear ER; conditions: cited from earlier work
[7] = system: BC cells; conditions: depends on concentration and duration of action; cited from earlier work
[8] = after 4 weeks of daily application
[9] = vaginal ring or tablets with E2, postmenopausal BC patients (no AI therapy)

In the case of `C[C@]12CC[C@@H]3c4ccc(O)cc4CC[C@H]3[C@@H]1C[C@@H](O)[C@@H]2O` [E3, estriol], the “metabolism into E1 or E2” value ([1]; E3 is an end product of estrogen metabolism) is listed as “cannot be transformed back”, the metabolic clearance [1] is listed as “rapid” and the “vaginal absorption as the vaginal epithelium matures” value ([1]; within a few days to weeks after start of vaginal treatment) is listed as “decreases”. For the same molecule, the “t max,C2” value ([2]; Visit C2 (day 28), maximum) was 8.0 h, the “AUC(0–24),C2” value ([2]; Visit C2 (day 28), maximum) was 0.457 ng·h/mL and the “t max,C2” value ([2]; Visit C2 (day 28), minimum) was 4.0 h. For the same molecule, the “C max,C2” value ([2]; Visit C2 (day 28), minimum, LLOQ E3 10.00 pg/ml) was “<LLOQ”, the “AUC(0–24),C2” value ([2]; Visit C2 (day 28), minimum) was “<LLOQ” and the “C max,E” value ([2]; Visit E (day 0), first application, maximum) was 0.168 ng/mL. The “AUC(0–24),E” value ([2]; Visit E (day 0), maximum) was 0.378 ng·h/mL, the “t max,E” value ([2]; Visit E (day 0), maximum) was 3.1 h and the “AUC(0–24),E” value ([2]; Visit E (day 0), minimum) was “<LLOQ”. For the same molecule, the “t max,E” value ([2]; Visit E (day 0), minimum) was 2.0 h, the “C max,E” value ([2]; Visit E (day 0), minimum, LLOQ E3 10.00 pg/ml) was “<LLOQ” and the “women with slightly increased serum E3” value ([2]; after 4 weeks) was 8 women. For the same molecule, the “patients without detectable increase of E3” value [2, 8] was 50%, the “women whose highest detected E3 level was below 20 pg/ml” value [2, 8] was 25% and the “women with transient increase in serum E3” value ([2]; after the first application (visit E, day 0)) was 15 of 16. For the same molecule, the “trough serum E3 levels” value ([2]; all visits, all except two subjects, LLOQ 10.00 pg/ml) was “below LLOQ”, the AUC(0-t) ([2]; female, human, AUC(0–24),C2, Visit C2 (day 28), mean, n=15, not reliable due to late metabolism and insufficient testing points) was 0.131 ng·h/mL and the AUC(0-t) ([2]; female, human, AUC(0–24),E, Visit E (day 0), GeoMean) was 0.154 ng·h/mL. The AUC(0-t) ([2]; female, human, AUC(0–24),E, Visit E (day 0), mean, n=16) was 0.212 ng·h/mL, the AUC(0-t) ([2]; female, human, AUC(0–24),E, Visit E (day 0), median) was 0.241 ng·h/mL and the Cmax ([2]; female, human, C max,C2, Visit C2 (day 28), GeoMean) was 0.011 ng/mL. For the same molecule, the Cmax ([2]; female, human, C max,C2, Visit C2 (day 28), mean, n=16) was 0.0158 ng/mL, the Cmax ([2]; female, human, C max,C2, Visit C2 (day 28), median) was 0.0091 ng/mL and the Cmax ([2]; female, human, C max,E, Visit E (day 0), GeoMean) was 0.0882 ng/mL. It also gave a Cmax ([2]; female, human, C max,E, Visit E (day 0), mean, n=16) of 0.104 ng/mL, a Cmax ([2]; female, human, C max,E, Visit E (day 0), median) of 0.11 ng/mL and a concentration at -0.5 h ([2]; female, human, E3 baseline and trough, maximum, visit C1 (week 2)) of 0.0492 ng/mL. For the same molecule, the concentration at -0.5 h ([2]; female, human, E3 baseline and trough, maximum, visit C2 (week 4)) was 0.0145 ng/mL, the concentration at -0.5 h ([2]; female, human, serum estriol (E3) concentration, Visit C2 (day 28), maximum, −0.5 h (pre-dose)) was 0.0145 ng/mL and the concentration at -0.5 h ([2]; female, human, serum estriol (E3) concentration, Visit C2 (day 28), mean, −0.5 h (pre-dose)) was 0.00091 ng/mL. The concentration at -0.5 h ([2]; female, human, serum estriol (E3) concentration, Visit C2 (day 28), median, −0.5 h (pre-dose)) was 0 ng/mL, the concentration at -0.5 h ([2]; female, human, serum estriol (E3) concentration, Visit C2 (day 28), minimum, −0.5 h (pre-dose)) was 0 ng/mL and the concentration at -0.5 h ([2]; female, human, serum estriol (E3) concentration, Visit E (day 0), maximum, −0.5 h (pre-dose)) was 0 ng/mL. The concentration at -0.5 h ([2]; female, human, serum estriol (E3) concentration, Visit E (day 0), mean, −0.5 h (pre-dose)) was 0 ng/mL, the concentration at -0.5 h ([2]; female, human, serum estriol (E3) concentration, Visit E (day 0), median, −0.5 h (pre-dose)) was 0 ng/mL and the concentration at -0.5 h ([2]; female, human, serum estriol (E3) concentration, Visit E (day 0), minimum, −0.5 h (pre-dose)) was 0 ng/mL. It also gave a Tmax ([2]; female, human, t max,C2, Visit C2 (day 28), mean, n=8) of 7.2 h, a Tmax ([2]; female, human, t max,C2, Visit C2 (day 28), median) of 7.9 h and a Tmax ([2]; female, human, t max,E, Visit E (day 0), mean, n=15) of 2.5 h. For the same molecule, the Tmax ([2]; female, human, t max,E, Visit E (day 0), median) was 2.2 h, the “exposure (AUC0–24) at end of initial therapy compared with study entry” value ([2]; human, in vivo) was “significantly lower” and the concentration at -0.5 h ([2]; human, trough E3 serum concentration, one subject, visit C1) was 0.0223 ng/mL. The “E3 baseline and trough” value ([2]; maximum, visit C1 (week 2)) was 49.20 pg/mL, the “E3 baseline and trough” value ([2]; maximum, visit C2 (week 4)) was 14.50 pg/mL and the “E3 baseline and trough” value ([2]; maximum, visit C3 (week 8)) was 0.00 pg/mL. The “E3 baseline and trough” value ([2]; maximum, visit C4 (week 12)) was 0.00 pg/mL, the “E3 baseline and trough” value ([2]; maximum, visit E (day 0, baseline)) was 0.00 pg/mL and the “E3 baseline and trough” value ([2]; mean (SD), visit C1 (week 2), n=14) was 5.11 (14.01)^a pg/ml. The “E3 baseline and trough” value ([2]; mean (SD), visit C2 (week 4)) was 0.91(3.63) pg/ml, the “E3 baseline and trough” value ([2]; mean (SD), visit C3 (week 8)) was 0.00 pg/mL and the “E3 baseline and trough” value ([2]; mean (SD), visit C4 (week 12)) was 0.00 pg/mL. For the same molecule, the “E3 baseline and trough” value ([2]; mean (SD), visit E (day 0, baseline)) was 0.00 pg/mL, the “E3 baseline and trough” value ([2]; minimum, visit C1 (week 2)) was 0.00 pg/mL and the “E3 baseline and trough” value ([2]; minimum, visit C2 (week 4)) was 0.00 pg/mL. The “E3 baseline and trough” value ([2]; minimum, visit C3 (week 8)) was 0.00 pg/mL, the “E3 baseline and trough” value ([2]; minimum, visit C4 (week 12)) was 0.00 pg/mL and the “E3 baseline and trough” value ([2]; minimum, visit E (day 0, baseline)) was 0.00 pg/mL. The “C max at visit C2 compared to visit E” value ([2]; p < 0.0001) was “significantly lower”, the “subjects without any quantifiable concentration of E3” value ([2]; visit C2 (day 28)) was “half” and the “time of serum E3 increase post-insertion” value ([2]; visit C2 (day 28)) was 6 to 8 h. For the same molecule, the “time of C max post-insertion” value ([2]; visit E (day 0), first application) was 2 to 3 h, the “nuclear retention time of the receptor complex” value [3] was less than 6 h and the “association with risk of BC” value [4] was “neither the use of vaginal E2 and E3 preparations nor oral E3 were associated with a risk of BC”. For the same molecule, the “serum E2 or E3” value ([5]; vaginal 0.25 mg E3 twice weekly, 12 weeks, no PK values determined) was “no increase”, the “serum levels of E3” value ([5]; vaginal application of conventional 0.50 mg dose of E3, ref [8]–[39]) was “increased” and the “affinity to the nuclear ER as compared to E2” value [6] was 10 times lower. For the same molecule, the “effect on BC cells in vitro” value [7] was “can stimulate”.

In the case of `C[C@]12CC[C@@H]3c4ccc(O)cc4CC[C@H]3[C@@H]1CC[C@@H]2O` [E2, estradiol], the “nuclear retention time of the receptor complex” value [3] is listed as greater than 12 h, the “serum levels of E2” value ([5]; vaginal administration of any dose of E2 in AI users, ref [3]–[14], [15]–[18]) is listed as “increases” and the “effect on vaginal atrophy” value [5, 9] is listed as “efficiently relieved vaginal atrophy”. The “serum levels of E2 and E1” value [5, 9] was “temporarily raised” and the “effect on BC cells in vitro” value [7] was “can stimulate”.
